In US20110166077A9, “COMBINED THERAPY AGAINST TUMORS COMPRISING SUBSTITUTED ACRYLOYL DISTAMYCIN DERIVATIVES AND RADIOTHERAPY” (Pharmacia Italia S.p.A., priority 2002, published 2011):
“And” between values parts separate entries of the source, which are not always exact repeats. Equal values may be shown once. Marks after values point to notes of the source that are not given here.

Legend:
[1] = tested on: SQ20B (radiation-resistant human squamous cell carcinoma of the larynx) cell line; assay: in vitro clonogenic assay, drug combined with ionizing radiation, SQ20B; format: cell-based; conditions: for C20 drug concentration corresponding to 20% cell survival / C80 drug concentration corresponding to 80% cell survival: drug alone, 2 h treatment; for Sensitization Ratio SR, Values for each culture: simultaneous schedule (2 h drug, 10 min irradiation at start of 2nd hour), SR<1 = radiosensitisation; for Sensitization Ratio SR, Mean of duplicates: simultaneous schedule
Protocol: (§1) The remarkable radiosensitisation effect exerted by the α-bromo- or α-chloro-acryloyl-distamycin derivatives, in particular the compounds of formula (I), is shown according to in vitro clonogenic assays on SQ20B (radiation-resistant human squamous cell carcinoma of the larynx) and A431 (human vulval carcinoma) cell lines. In this respect, two different schedule treatments were evaluated either comprising simultaneous exposure to the tested compound of formula (I) and to radiation, or sequential exposure to both these cytotoxic agents in any order, that is drug/radiation or radiation/drug (see details below). As control, the effect of cisplatin in combination with radiotherapy has been tested in the same operative conditions.
(§2) To define a Sensitization Ratio (SR), the clonogenic survival of cells being treated with a combination of irradiation and drug exposure (SX+D) was compared with the product of survival for drug alone (SD) and irradiation alone (SX), as follows SR=SX+D/SD*SX
(§3) From the above, it is clear to the skilled person that if both radiation and drug exerted their cytotoxic effect independently from each other, SR values would be close to 1 whereas, on the contrary, a radiosensitisation effect indicating a synergism between ionizing radiation and drug is characterized by SR values lower than 1 (SR<1).
(§4) For both compounds Compound A and cisplatin, exposures were simultaneous to ionizing radiation in both SQ20B and A431 cell lines. The schedule consisted of 2 h drug treatment with a period of irradiation (10 minutes) starting at the beginning of the 2nd hour of treatment.
(§5) Four data sets for each of Compound A and cisplatin, in each cell line were obtained (see table 1) comprising duplicates of two different drug concentration chosen to yield cytotoxicity values corresponding to 80% (C80) and 20% (C20) survival for treatment with the drug alone. […]

[2] = tested on: A431 (human vulval carcinoma) cell line; assay: in vitro clonogenic assay, drug combined with ionizing radiation, A431; format: cell-based; conditions: for C20 drug concentration corresponding to 20% cell survival / C80 drug concentration corresponding to 80% cell survival: drug alone, 2 h treatment; for Sensitization Ratio SR, Values for each culture: simultaneous schedule (2 h drug, 10 min irradiation at start of 2nd hour), SR<1 = radiosensitisation; for Sensitization Ratio SR, Mean of duplicates: simultaneous schedule
Protocol: as §1, §2, §3, §4, §5

[3] = drug at C20 (Compound A 350 ng/ml, cisplatin 6.5 μM)
[4] = drug at C80 (Compound A 50 ng/ml, cisplatin 0.4 μM)
[5] = drug at C20 (Compound A 90 ng/ml, cisplatin 5.0 μM)
[6] = drug at C80 (Compound A 20 ng/ml, cisplatin 0.8 μM)

Structure (SMILES): C=C(Br)C(=O)Nc1cc(C(=O)Nc2cc(C(=O)Nc3cc(C(=O)Nc4cc(C(=O)NCCNC(=N)N)n(C)c4)n(C)c3)n(C)c2)n(C)c1.Cl [Compound A, N-[5-[[[5-[[[2-[(animoiminomethyl)amino]ethyl]amino]carbonyl]-1-methyl-1H-pyrrol-3-yl]amino]carbonyl]-1-methyl-1H-pyrrol-3-yl]-4-[[[4-[(2-bromo-1-oxo-2-propenyl)amino]-1-methyl-1H-pyrrol-2-yl]carbonyl]amino]-1-methyl-1H-pyrrole-2-carboxamide hydrochloride]
- Sensitization Ratio SR / radiosensitisation effect ([1]; combination with radiotherapy, summary over concentrations): lower than 1
- C20 drug concentration corresponding to 20% cell survival [1]: 350 (C20)^(d) ng/ml
- C80 drug concentration corresponding to 80% cell survival [1]: 50 (C80)^(c) ng/ml
- Sensitization Ratio SR, Values for each culture ([1]; drug at C20 (Compound A 350 ng/ml, cisplatin 6.5 μM), hydrochloride): 0.55 and 0.46
- Sensitization Ratio SR, Values for each culture ([1]; drug at C80 (Compound A 50 ng/ml, cisplatin 0.4 μM), hydrochloride): 0.84 and 0.85
- Sensitization Ratio SR, Mean of duplicates [1, 3]: C20 0.50
- Sensitization Ratio SR, Mean of duplicates [1, 4]: C80 0.85
- C20 drug concentration corresponding to 20% cell survival [2]: 90 (C20) ng/ml
- C80 drug concentration corresponding to 80% cell survival [2]: 20 (C80) ng/ml
- Sensitization Ratio SR, Values for each culture ([2]; drug at C20 (Compound A 90 ng/ml, cisplatin 5.0 μM), hydrochloride): 0.33 and 0.40
- Sensitization Ratio SR, Values for each culture ([2]; drug at C80 (Compound A 20 ng/ml, cisplatin 0.8 μM), hydrochloride): 0.65 and 0.59
- Sensitization Ratio SR, Mean of duplicates [2, 5]: C20 0.37
- Sensitization Ratio SR, Mean of duplicates [2, 6]: C80 0.62

Structure (SMILES): N.N.[Cl][Pt][Cl] [cisplatin, reference compound]
- C20 drug concentration corresponding to 20% cell survival [1]: 6.5 (C20) μM
- C80 drug concentration corresponding to 80% cell survival [1]: 0.4 (C80) μM
- Sensitization Ratio SR, Values for each culture [1, 3]: 0.72 and 0.81
- Sensitization Ratio SR, Values for each culture [1, 4]: 0.78 and 0.82
- Sensitization Ratio SR, Mean of duplicates [1, 3]: C20 0.77
- Sensitization Ratio SR, Mean of duplicates [1, 4]: C80 0.80
- C20 drug concentration corresponding to 20% cell survival [2]: 5.0 (C20) μM
- C80 drug concentration corresponding to 80% cell survival [2]: 0.8 (C80) μM
- Sensitization Ratio SR, Values for each culture [2, 5]: 1.08 and 0.86
- Sensitization Ratio SR, Values for each culture [2, 6]: 1.02 and 0.84
- Sensitization Ratio SR, Mean of duplicates [2, 5]: C20 0.97
- Sensitization Ratio SR, Mean of duplicates [2, 6]: C80 0.96
